# Measured values reported in US10907168B2, “Jasmonic acid pathway activator” (MEDICAGO INC., priority 2015, dated 2021).
# System: C5-1 antibody
# Assay: C5-1 antibody quantification by ELISA in agroinfiltrated leaves
# Format: in vivo, Nicotiana benthamiana
# Experimental: Forty-two day-old N. benthamiana plants grown in greenhouse were used for the experiments. Each plant was sprayed evenly with 50 ml of 0.5 mM, 1 mM or 2 mM MeJA in water containing 0.1% (v/v) Triton X-100 (Sigma-Aldrich, Mississauga ON, Canada), or with 50 ml of 1 mM arachidonic acid (Girard et al., 2007) in the same solvent, and transferred for seven days in a Conviron growth chamber (Conviron, Winnipeg MB, Canada). Plants sprayed with 50 ml of 0.1% (v/v) Triton X-100 in water were used in parallel as negative controls to avoid confounding effects due to experimental conditions. Two or three 1-cm^2 leaf discs were harvested from the third main stem leaf (see Robert et al., 2013) after seven days, as source material for protein and RNA extraction. The leaf samples were frozen immediately in liquid nitrogen and stored at −80° C. until protein or RNA extraction. Three to five biological (plant) replicates were used for each treatment, to allow for statistical treatment of the data. Two gene vectors were used for the agroinfiltration assays: an engineered pcambia2300 vector encoding the light and heavy chains of C5-1 fused to an N-terminal signal peptide sequence for cellular secretion (see Goulet et al., 2012 for details on gene construct); and the original (“empty”) pcambia2300 binary vector (CAMBIA, Canberra, Australia) as a control for agroinfection. The two binary vectors were electroporated into A. tumefaciens strain LBA4404 and the cultures were maintained in Luria-Bertani (LB) medium supplemented with 50 μg/ml kanamycin and 50 μg/ml rifampicin. For infiltration, bacteria were grown to stable phase at 28° C. to an OD600 of 1.0 and collected by centrifugation at 2,000 g. The bacterial pellets were resuspended in 10 mM 2-[N-morpholino] ethanesulfonic acid] (MES) buffer, pH 5.8, containing 100 μM acetosyringone and 10 mM MgCl2. Leaf infiltration was performed using a needle-less syringe as described earlier (D'Aoust et al., 2009), after mixing the C5-1 antibody (or empty vector) agrobacterial suspension with an equal volume of bacterial suspension carrying a binary vector for the protein silencing suppressor p19 (Voinnet et al., 2003). Infiltrated tissue for molecular characterization was collected six days post-infection (i.e. seven days post-MeJA or arachidonate treatment), unless otherwise indicated. Three to five biological (plant) replicates were used for each treatment to allow for statistical analyses. ELISA plates for C5-1 antibody quantification (Becton Dickinson, Mississauga ON, Canada) were coated with 3.75 μg/ml goat anti-mouse heavy chain-specific IgG1 (Sigma-Aldrich) in 50 mM carbonate buffer (pH 9.0) at 4° C. for 16-18 h. The plates were washed three times in 10 mM phosphate-buffered saline containing 0.1% (v/v) Tween 20 (PBS-T), blocked through a 1-h incubation at 37° C. in 1% (w/v) casein in phosphate-buffered saline (PBS) (Pierce, Rockford Ill., USA), and washed three times in PBS-T. A standard curve was generated for each plate with 0, 4, 8, 16, 24, 32, 40 and 60 ng/ml of purified mouse IgG1 (Sigma-Aldrich). All dilutions (controls and samples) were performed in a control extract obtained from leaf tissue infiltrated with a mock inoculum so that any matrix effect was eliminated. The plates were incubated with protein samples for 1 h at 37° C., washed three times in PBS-T and then incubated with peroxidase-conjugated goat anti-mouse IgG (H+L) antibodies (0.02 μg/ml in blocking solution) (Jackson ImmunoResearch) for 1 h at 37° C. After additional washes with PBS-T, the plates were incubated with the 3,3′,5,5′-tetramethylbenzidine Sure Blue peroxidase substrate (KPL, Gaithersburg Md., USA). The reaction was stopped by the addition of 1 N HCl and the absorbance was read at 450 nm. Three independent (biological) replicates were used for each assay.
# [1] = ELISA, 1 mM, 24 h before infiltration
smiles,measurement,setting,value
"CC/C=C\C[C@H]1C(=O)CC[C@@H]1CC(=O)OC [MeJA, methyl jasmonate]",C5-1 yield change,"1 mM, 24 h before infiltration, antibody expressed under alfalfa plastocyanin promoter",more than twofold decrease
same,C5-1 net yield as share of TSP,[1],~7 % TSP
same,C5-1 net yield on a protein-relative basis,[1],70 ng antibody/μg soluble proteins
same,C5-1 protein-relative yield compared with control leaves,"ELISA, 1 mM, 24 h before infiltration, P<0.05",about twice
same,C5-1 yield on a weight basis,"ELISA, 1 mM, 24 h before infiltration, maximum yield",~425 μg/g leaf tissue
same,C5-1 yield on a weight basis,"ELISA, 2 mM, 24 h before infiltration",~325 μg/g leaf tissue
same,C5-1 yield change,"ELISA, sprayed 24 h post-infiltration (0.5 or 1 mM)",No yield increase
